In brackets after ≈: the same amount, converted by molar mass.
Columns and labels:
Type in all cases: cell-based
[1] = tested on: L4187 E. faecium VanA - Lnz R - Cpx R; assay: microbe, parasite or virus in culture; settings: Enterococcus faecium
Experimental: (§1) Antibacterial activity. […] Each bacterial strain was inoculated with 2-5×10^5 CFU/ml, Candida albicans with 10^4 CFU/ml. Cultures were incubated at 35°C in air. After 18-24 hours visual readings were performed and MICs (Minimal Inhibitory Concentrations) determined. The effect of 30% bovine serum was determined under the same experimental conditions. The strains used were clinical isolates or strains from American Type Culture Collection (ATCC).

[2] = tested on: VA80201 S. aureus CA-MRSA; assay: MIC, broth microdilution (CLSI); settings: Staphylococcus aureus, MRSA
Experimental: as §1

[3] = tested on: L1729 S. haemolyticus MDR; assay: MIC, broth microdilution (CLSI); settings: Staphylococcus haemolyticus
Experimental: as §1

L819 S. aureus Smith = assay: MIC, broth microdilution (CLSI); settings: Staphylococcus aureus
Experimental: as §1

L568 E. faecium = assay: MIC, broth microdilution (CLSI); settings: Enterococcus faecium
Experimental: as §1

L100 S. aureus ATCC6538P = assay: MIC, broth microdilution (CLSI); settings: Staphylococcus aureus, ATCC6538P
Experimental: as §1

L559 E. faecalis = assay: MIC, broth microdilution (CLSI); settings: Enterococcus faecalis
Experimental: as §1

L3294 M. catarrhalis = assay: MIC, broth microdilution (CLSI); settings: Moraxella catarrhalis
Experimental: as §1

L1577 S. epidermidis = assay: MIC, broth microdilution (CLSI); settings: Staphylococcus epidermidis
Experimental: as §1

L49 S. pyogenes C203 = assay: MIC, broth microdilution (CLSI); settings: Streptococcus pyogenes
Experimental: as §1

L1400 S. aureus HA-MRSA = assay: MIC, broth microdilution (CLSI); settings: Staphylococcus aureus, MRSA
Experimental: as §1

L44 S. pneumoniae = assay: MIC, broth microdilution (CLSI); settings: Streptococcus pneumoniae
Experimental: as §1

L560 E. faecalis VanA = assay: MIC, broth microdilution (CLSI); settings: Enterococcus faecalis
Experimental: as §1

L569 E. faecium VanA = assay: MIC, broth microdilution (CLSI)
Experimental: as §1

[4] = tested on: L4061 S. aureus MRSA - GISA; assay: MIC, broth microdilution (CLSI); settings: Staphylococcus aureus, MRSA
Experimental: as §1

[5] = tested on: VA8101 S. agalactiae (Group B); assay: MIC, broth microdilution (CLSI); settings: Streptococcus agalactiae
Experimental: as §1

L1730 S. haemolyticus = assay: MIC, broth microdilution (CLSI); settings: L1730 S. haemolyticus, cation-adjusted Mueller Hinton Broth, 35°C, 18-24 hours
Experimental: as §1

L47 E. coli = assay: MIC, broth microdilution (CLSI); settings: Escherichia coli
Experimental: as §1

L145 C. albicans = assay: MIC, broth microdilution (CLSI); settings: Candida albicans
Experimental: Antibacterial activity. The antimicrobial activity of the antibiotic 103/33-F710 was determined by the broth microdilution method according to the procedures published by the Clinical and Laboratory Standards Institute (CLSI), formerly the National Committee for Clinical Laboratory Standards (NCCLS) (document M07-A9). Microorganisms were grown in either cation-adjusted Mueller Hinton Broth (Staphylococci, Enterococci, Moraxella catarrhalis, Escherichia coli), Todd Hewitt medium (Streptococci) or RPMI 1640 medium for Candida albicans on 96-well microtiter plates. Each bacterial strain was inoculated with 2-5×10^5 CFU/ml, Candida albicans with 10^4 CFU/ml. Cultures were incubated at 35°C in air. After 18-24 hours visual readings were performed and MICs (Minimal Inhibitory Concentrations) determined. The effect of 30% bovine serum was determined under the same experimental conditions. The strains used were clinical isolates or strains from American Type Culture Collection (ATCC). The antibiotic 103/33-F710 was dissolved in DMSO to obtain a 1000 µg/ml stock solution, and subsequently diluted in water to obtain working solution. Table 5: Antimicrobial activity reported as MIC (µg/ml) of ID103/33-F710
Antibacterial activity. The antimicrobial activity of the antibiotic 103/33-F696 was determined by the broth microdilution method according to the procedures disclosed in Example 7. Table 6: Antimicrobial activity reported as MIC (µg/ml) of compound 2 (103/33-F696)
Antibacterial activity. The antimicrobial activity of the antibiotic 103/33-F712 was determined by the broth microdilution method according to the procedures disclosed in Example 7. Table 7: Antimicrobial activity reported as MIC (µg/ml) of ID103/33-F712

Question: CN[C@H](CC(C)C)C(=O)N[C@H]1C(=O)N[C@@H](CC(N)=O)C(=O)N[C@H]2C(=O)N[C@H]3C(=O)N[C@H](C(=O)N[C@H](C(=O)O)c4cc(O)cc(O)c4-c4cc3ccc4O)[C@H](O)c3ccc(c(Cl)c3)Oc3cc2cc(c3O[C@@H]2O[C@H](CO)[C@@H](O)[C@H](O)[C@H]2O[C@H]2C[C@](C)(N)[C@H](O)[C@H](C)O2)Oc2ccc(cc2Cl)[C@H]1O [Vancomycin, reference compound] was tested. Which MIC [1] did it give?
Answer: The MIC was > 128 µg/mL.

Question: What about the MIC [2] of the same compound?
Answer: The MIC was 1 µg/mL (≈ 0.69 µM).

Question: And the MIC [3]?
Answer: Its MIC is 2 µg/mL (≈ 1.38 µM).

Question: And the MIC (L819 S. aureus Smith)?
Answer: The MIC was 1 µg/mL (≈ 0.69 µM).

Question: And the MIC (L568 E. faecium)?
Answer: The MIC was 2 µg/mL (≈ 1.38 µM).

Question: What about the MIC (L100 S. aureus ATCC6538P) of the same compound?
Answer: The MIC was 1 µg/mL (≈ 0.69 µM).

Question: What about the MIC (L559 E. faecalis) of the same compound?
Answer: Its MIC is 0.5 µg/mL (≈ 0.345 µM).

Question: What about the MIC (L3294 M. catarrhalis) of the same compound?
Answer: The MIC was 16 µg/mL (≈ 11 µM).

Question: And the MIC (L1577 S. epidermidis)?
Answer: The MIC was 1 µg/mL (≈ 0.69 µM).

Question: And the MIC (L49 S. pyogenes C203)?
Answer: The MIC was 0.5 µg/mL (≈ 0.345 µM).

Question: What about the MIC (L1400 S. aureus HA-MRSA) of the same compound?
Answer: The MIC was 1 µg/mL (≈ 0.69 µM).

Question: And the MIC (L44 S. pneumoniae)?
Answer: Its MIC is 0.5 µg/mL (≈ 0.345 µM).

Question: What about the MIC (L560 E. faecalis VanA) of the same compound?
Answer: The MIC was > 128 µg/mL.

Question: And the MIC (L569 E. faecium VanA; Enterococcus faecium)?
Answer: Its MIC is > 128 µg/mL.

Question: And the MIC (L569 E. faecium VanA; L569 E. faecium VanA 30 % SB (30% bovine serum))?
Answer: Its MIC is > 128 µg/mL.

Question: And the MIC [4]?
Answer: The MIC was 4 µg/mL (≈ 2.76 µM).

Question: And the MIC [5]?
Answer: The MIC was 0.5 µg/mL (≈ 0.345 µM).

Question: And the MIC (L1730 S. haemolyticus)?
Answer: The MIC was 0.5 µg/mL (≈ 0.345 µM).

Question: And the MIC (L1730 S. haemolyticus; Staphylococcus haemolyticus)?
Answer: Its MIC is 1 µg/mL (≈ 0.69 µM).

Question: What about the MIC (L47 E. coli) of the same compound?
Answer: Its MIC is > 128 µg/mL.

Question: For C[C@@H]1[C@H](O)[C@@H](C)/C=C/C=C/C=C/C=C/C=C/C=C/C=C/[C@H](O[C@@H]2O[C@H](C)[C@@H](O)[C@H](N)[C@@H]2O)C[C@@H]2O[C@](O)(C[C@@H](O)C[C@@H](O)[C@H](O)CC[C@@H](O)C[C@@H](O)CC(=O)O[C@H]1C)C[C@H](O)[C@H]2C(=O)O [amphotericin B, reference compound], which MIC (L145 C. albicans) is on record?
Answer: Its MIC is 0.5 µg/mL (≈ 0.541 µM).
